From PMC8596843, “Platinum Cyclooctadiene Complexes with Activity against Gram‐positive Bacteria” (Chemmedchem, 2021)

Key:
[1] = test system: Staphylococcus aureus (ATCC 43300, MRSA); assay: In vivo efficacy in MRSA-infected moth larvae; parameters: species or system Galleria mellonella; settings: 24 h after drug administration; vs 10 % DMSO control; rifampicin 0.4 mg/mL, 10 µL
Method: Ethics Committee was obtained for use of human blood for haemolysis studies (approval number […]
G. mellonella larvae were reared in controlled environmental room at Macquarie University, Sydney, Australia at 26 °C and 65% humidity with a 12-hours light/dark cycle. Larvae (~200 mg) were individually injected with 10 µL of chemical into the last right proleg using a 100 μL syringe (Hamilton Ltd). The […]
Each compound was dissolved in DMSO and diluted to final concentrations of 1 µM, 100 µM and 10 mM. We injected 5 larvae for each dilution of each compound.
Larvae injected with different dilutions of DMSO (10-1, 10-3 and 10-5) were included as negative controls.
Following injection, the larvae were incubated at 26 °C and monitored every 24 h for 4 days. Larval performance was assessed according to the G. mellonella Health Index Scoring System.[1] The experiments were repeated three separate times.
Galleria larvae (weighing between 200-250 mg) were infected with […] cells of Staphylococcus aureus (ATCC 43300, MRSA) (suspended in 10 µL PBS) and incubated at 37 °C. Two hours later, 10 µL compounds of either Pt1 or Pt2 (0.4 mM) in 10% DMSO was injected to the other proleg of the larvae.
Larvae injected with 10% DMSO and Rifampicin (0.4 mg/mL) were included as controls. […] Bacterial number was determined by drop plate method. […] Bacterial number was counted after incubation for 24 h.

[2] = parameters: method as in PMID 33469147; settings: mouse skin infection models, topical; cited from earlier work

| Structure (SMILES) | reduction in CFU (bacterial load per larva) [1] [log] | bacterial load [2] |
| --- | --- | --- |
| CO[C@H]1/C=C/O[C@@]2(C)Oc3c(C)c(O)c4c(O)c(c(/C=N/N5CCN(C)CC5)c(O)c4c3C2=O)NC(=O)/C(C)=C\C=C\[C@H](C)[C@H](O)[C@@H](C)[C@@H](O)[C@@H](C)[C@H](OC(C)=O)[C@@H]1C [Rifampicin] | 2 | – |
| C=C(C)[C@@H]1CCC(C)=C[C@H]1c1c(O)cc(CCCCC)cc1O [cannabidiol] | – | able to reduce bacterial load |
